Measurements as given in patent US20240360143A1, “[1,2,4]TRIAZOLO[4,3-A]PYRIMIDIN-7(8H)-ONE AS MITOCHONDRIAL PYRUVATE CARRIER INHIBITORS FOR USE IN THE TREATMENT OF CANCER” (MPC THERAPEUTICS SA, priority 2021, published 2024).

Columns and labels:
B16-OVA melanoma = assay: Adoptive cell transfer of compound-treated OT1 CD8 T cells in B16-OVA melanoma tumor model; type: in vivo, mouse
Protocol: Activated CD45.1+OT-1 splenocytes were culture in vitro for 7 days as described above, collected and purified on a Ficoll gradient, allowing to separate dead and live splenocytes. Live splenocytes were counted with Trypan blue stain 0.4%. 100′000 or 2′000′000 live splenocytes were transferred into CD45.2+ host mice by tail vein injection.
B16-OVA cells were cultured in DMEM (GIBCO) with 10% FBS and 1% P/S before their subcutaneous injection into the mouse flank. Each mouse received 100′000 cells in a volume of 200 μl of PBS. 6 days after B16-OVA cells injection, tumors were measured, mice were randomized and lymphodepleted by irradiation (5 Gray). 7 days after B16-Ova injection, mice were adoptively transferred with the ACT protocol described previously. Following the ACT, mice received a vaccination of CpG (50 μg/mouse) and N4 Ova peptide (10 μg/mouse) diluted in PBS to obtain a total volume of 100 μl/mouse, injected subcutaneously at the tail base. Tumors were measured every 2 days and the tumor volume was calculated according to the formula: V=π×[d2×D]/6, where d is the minor tumor axis and D is the major tumor axis. At day 26 days post-tumor engraftment, tumors and spleens were dissected were then stained for flow cytometry analyses.
Briefly, 105 ovalbumin-expressing B16 melanoma cells were injected subcutaneously in 6-week-old mice. At day 6 post-engraftment, when a palpable tumor was present, mice were irradiated with 5Gy. The next day 105 Compound 45- or DMSO-treated OT1 cells were intravenously injected, followed by a subcutaneous vaccination of 50 μg CpG and 10 μg N4 Ova peptide (FIG. 2A). […] When analysing the blood 9 days post-adoptive cell transfer, one could observe an increase in number of transferred cells when treated in vitro with Compound 45 as compared to DMSO (FIG. 2D). The phenotype of the Compound 45-treated cells was biased towards memory, as there was a reduced percentage of short-lived effector T cells (FIG. 2E) and an increase in memory-precursor effector T cells and cells with a central memory phenotype (FIGS. 2F and 2G). When analysing the tumor upon dissection, more Compound 45-treated T cells were infiltrating the tumor (FIG. 2H).
In order to observe a stronger anti-tumor response of the transferred OT1 T cells, the previous experiment was repeated by transferring 2×10^6 DMSO- or Compound 45-treated OT1 T cells, instead of only 10^5 (FIG. 3A). […] When analysing the tumor upon dissection, no difference in T cell infiltration was observed (FIG. 3D). […] There was however no difference in terminally exhausted or progenitor exhausted T cells (FIGS. 3F and 3G). […] There was no difference in CD107a expression (FIG. 3O).

[1] = target: T1, mitochondrial pyruvate carrier (MPC) (Homo sapiens, UniProt O95563+Q9Y5U8); assay: Bret IC50, inhibitory activity against MPC; type: cell-based
T1 sequence (Q9Y5U8 1-109): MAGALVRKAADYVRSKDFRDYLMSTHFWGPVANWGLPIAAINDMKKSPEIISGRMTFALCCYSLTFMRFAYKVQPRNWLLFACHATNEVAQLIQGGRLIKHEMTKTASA
T1 sequence (O95563 1-127): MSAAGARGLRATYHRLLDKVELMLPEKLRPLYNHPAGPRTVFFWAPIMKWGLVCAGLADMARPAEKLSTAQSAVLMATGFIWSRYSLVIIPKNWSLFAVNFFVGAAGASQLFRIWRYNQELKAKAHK
Description: The inhibition of mitochondrial pyruvate carrier (MPC) by compounds of the invention have been tested as follows and their inhibitory activity was expressed as IC50s values.
Table 2 below presents the IC50s of the compounds of the invention.

## O=c1cc(Cc2ccccc2)n2c(SCc3c(F)cccc3Cl)nnc2[nH]1 [Compound 45, 5-benzyl-3-[(2-chloro-6-fluorobenzyl)sulfanyl][1,2,4]triazolo[4,3-a]pyrimidin-7 (8H)-one]
B16-OVA melanoma; 2×10^6 cells, spleen (FIG. 3H)
  number of treated T cells in the spleen: decreased
B16-OVA melanoma; 2×10^6 cells, spleen (FIG. 3I)
  central memory phenotype in the spleen: increased
B16-OVA melanoma; 2×10^6 cells, spleen (FIG. 3J)
  TCF1 expression in the spleen: trend towards increased
B16-OVA melanoma; 2×10^6 cells, tumor (FIG. 3F)
  terminally exhausted T cells: no difference
B16-OVA melanoma; 2×10^6 cells, tumor (FIG. 3G)
  progenitor exhausted T cells: no difference
B16-OVA melanoma; 2×10^6 cells, tumor cells restimulated with OVA peptide (FIG. 3K)
  IFNy expression: did not show difference
B16-OVA melanoma; 2×10^6 cells, tumor cells restimulated with OVA peptide (FIG. 3L)
  TNF expression: did not show difference
B16-OVA melanoma; 2×10^6 cells, tumor cells restimulated with OVA peptide (FIG. 3M)
  IL2 expression: did not show difference
B16-OVA melanoma; 2×10^6 cells, tumor cells restimulated with OVA peptide (FIG. 3N)
  Granzyme B expression: increased
B16-OVA melanoma; 2×10^6 cells, tumor cells restimulated with OVA peptide (FIG. 3O)
  CD107a expression: no difference
B16-OVA melanoma; 2×10^6 cells, tumor upon dissection (FIG. 3D)
  T cell infiltration in tumor: no difference
B16-OVA melanoma; 2×10^6 cells, vs DMSO (FIG. 3E)
  exhausted tumor infiltrating T cells: more exhausted
B16-OVA melanoma; 2×10^6 treated OT1 cells transferred, vs DMSO (FIG. 3B)
  B16 tumor growth: strongly reduced
B16-OVA melanoma; 2×10^6 treated OT1 cells, vs DMSO (FIG. 3C)
  B16 tumor weight: strongly reduced
B16-OVA melanoma; 10^5 cells, blood 9 days post-ACT (FIG. 2E)
  percentage of short-lived effector T cells: reduced
B16-OVA melanoma; 10^5 cells, blood 9 days post-ACT (FIG. 2F)
  memory-precursor effector T cells: increase
B16-OVA melanoma; 10^5 cells, blood 9 days post-ACT (FIG. 2G)
  cells with a central memory phenotype: increase
B16-OVA melanoma; 10^5 cells, blood 9 days post-ACT, vs DMSO (FIG. 2D)
  number of transferred cells in blood: increase
B16-OVA melanoma; 10^5 cells, spleen (FIG. 2L)
  number of treated T cells in the spleen: increased
B16-OVA melanoma; 10^5 cells, spleen (FIG. 2M)
  central memory phenotype in the spleen: increased
B16-OVA melanoma; 10^5 cells, spleen (FIG. 2N)
  TCF1 expression in the spleen: not significantly altered
B16-OVA melanoma; 10^5 cells, tumor cells restimulated with OVA peptide (FIG. 2O)
  IFNy expression: did not show a significant increase
B16-OVA melanoma; 10^5 cells, tumor cells restimulated with OVA peptide (FIG. 2P)
  TNF expression: did not show a significant increase
B16-OVA melanoma; 10^5 cells, tumor cells restimulated with OVA peptide (FIG. 2Q)
  IL2 expression: did not show a significant increase
B16-OVA melanoma; 10^5 cells, tumor cells restimulated with OVA peptide (FIG. 2R)
  Granzyme B expression: did not show a significant increase
B16-OVA melanoma; 10^5 cells, tumor cells restimulated with OVA peptide (FIG. 2S)
  expression of CD107a (LAMP1): increased
B16-OVA melanoma; 10^5 cells, tumor upon dissection (FIG. 2H)
  treated T cells infiltrating the tumor: more
B16-OVA melanoma; 10^5 cells, vs DMSO (FIG. 2I)
  exhausted tumor infiltrating T cells: not significantly more or less exhausted
B16-OVA melanoma; 10^5 treated OT1 cells transferred, vs DMSO (FIG. 2B)
  B16 tumor growth: reduced
B16-OVA melanoma; 10^5 treated OT1 cells, vs DMSO (FIG. 2C)
  Tumor weight: not significantly reduced
[1]
  IC50: 0.117 µM
